Reference: patent US20170362210A1, “ANTI-ESTROGENIC COMPOUNDS” (PFIZER INC., priority 2015, published 2017)
Read-outs that look alike come from different tables or passages of the source.

How the values were obtained:
ERα = target: T1, ERα (Homo sapiens, UniProt P03372); experiment: ERα expression in MCF-7 cell lysates (immunoblot); type: cell-based; settings: MCF-7 cells, 100 nM compound, serum-free medium, 24 hours, immunoblot band intensity
T1 construct: ERα expression was detected in MCF-7 cell lysates treated with 100 nM antiestrogens in serum-free medium for 24 hours; endogenous in cells; host or cells: MCF-7
T1 sequence (P03372 1-595): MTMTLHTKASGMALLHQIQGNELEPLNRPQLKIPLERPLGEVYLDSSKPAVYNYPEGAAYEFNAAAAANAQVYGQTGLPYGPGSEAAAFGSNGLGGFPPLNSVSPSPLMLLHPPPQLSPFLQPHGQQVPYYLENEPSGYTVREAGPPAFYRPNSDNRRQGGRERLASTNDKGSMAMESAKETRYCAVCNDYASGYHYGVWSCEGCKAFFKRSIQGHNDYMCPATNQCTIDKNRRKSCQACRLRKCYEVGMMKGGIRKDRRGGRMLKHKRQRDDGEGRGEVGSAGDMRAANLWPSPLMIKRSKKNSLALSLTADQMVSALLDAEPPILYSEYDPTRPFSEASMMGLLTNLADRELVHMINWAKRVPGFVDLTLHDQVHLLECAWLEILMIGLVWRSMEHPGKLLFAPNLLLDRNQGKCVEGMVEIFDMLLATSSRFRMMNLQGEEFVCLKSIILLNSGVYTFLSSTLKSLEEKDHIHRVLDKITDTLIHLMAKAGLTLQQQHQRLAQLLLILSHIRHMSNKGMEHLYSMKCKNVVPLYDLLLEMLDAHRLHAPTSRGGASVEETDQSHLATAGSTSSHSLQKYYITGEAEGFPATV
Protocol: ERα expression was detected in MCF-7 cell lysates treated with 100 nM antiestrogens in serum-free medium for 24 hours and immunoblotted with an antibody specific to ERα.
Band intensity was normalized relative to vehicle for each individual experiment and listed in Table 3 (Relative change ERα levels (% vehicle)).

[1] = test system: AP activity in ECC-1 cells; experiment: Alkaline phosphatase (AP) assay in ECC-1 cells co-treated with 500 pM E2; type: cell-based, human; settings: 3 days
Protocol: (§1) Method for performing the alkaline phosphatase (AP) assay. ECC-1 cells (American Type Culture Collection, Manassas, Va.) were maintained in RPMI medium plus 10% fetal bovine serum at 37° C. At the beginning of the assay trypsinized cells were resuspended in RPMI medium plus 5% charcoal dextran stripped serum (CDSS, (Hyclone, Logan, Utah)) and plated at a density of 25-50 k cells per well into a 96-well plate for at least 6 hours. Representative compounds were diluted in serum-free medium and added 1:1 to plated cells in replicate wells (2.5% CDSS final). Plates were incubated for 3 days at 37° C. and subsequently frozen at −80° C. to lyse cells after removing the medium. Thawed plates were incubated with a chromogenic substrate of AP, p-nitrophenyl phosphate (Invitrogen, Grand Island, N.Y.), for 40 minutes at 40° C. Absorbances were read at 405 nm using a plate spectrophotometer. AP activity was normalized to 500 pM 17β-estradiol (E2), reported as the maximum activity observed for each individual experiment, regardless of dose.
AP activity was assayed as in Example 28 but cells were co-treated with 500 pM E2.

[2] = test system: AP activity in ECC-1 cells; experiment: Alkaline phosphatase (AP) assay in ECC-1 uterine cells, induction of AP activity; type: cell-based, human; settings: 3 days, normalized to 500 pM E2, maximum activity observed regardless of dose
Protocol: as §1

[3] = test system: MCF-7 breast cancer cells; experiment: Inhibition of E2-stimulated proliferation of MCF-7 breast cancer cells; type: cell-based, human; settings: 100 pM E2, hormone-depleted medium, 6-8 days
Protocol: Proliferation of MCF-7 breast cancer cells was measured using a fluorescent DNA binding dye 6-8 days after treatment in triplicate with representative compounds in the presence of 100 pM E2 in hormone-depleted medium. IC50's were calculated from individual experiments as in Example 25.

[4] = test system: estrogen-responsive reporter gene (ERE-tk109-Luc) in MCF-7 cells; experiment: Inhibition of E2-induced transcription, ERE-tk109-Luc reporter gene in MCF-7 cells; type: cell-based, human; settings: 100 pM 17β-estradiol (E2), 18-22 hours, read-out: IC50, inhibition of E2-induced transcription in breast cells
Protocol: Representative compounds were tested for their inhibitory activity of estrogen according to the assay methods described in Hodges-Gallagher, L., Valentine, C. V., El Bader, S. and Kushner, P. J. (2007) “Histone Deacetylase Inhibitors Enhance the Efficacy of Hormonal Therapy Agents on Breast Cancer Cells and Blocks Anti-estrogen-Driven Uterine Cell Proliferation” Breast Cancer Res Treat, November; 105(3):297-309. Specifically, an estrogen-responsive reporter gene (ERE-tk109-Luc) was transiently transfected into MCF-7 cells and treated with anti-estrogens in triplicate in the presence of 100 pM 17β-estradiol (E2) for 18-22 hours. Luciferase activity was normalized to activity of E2 alone and IC50's were calculated using the least squares fit method.

[5] = Homo sapiens, MCF7, MCF-7 cells

| Structure (SMILES) | Relative change ERα levels (% vehicle) (ERα) [% veh] | IC50 ([3]; MCF-7 cells) [nM] | IC50 ([4]; MCF-7 cells) [nM] | IC50 [3, 5] [nM] | IC50 [4, 5] [nM] | AP activity (% E2), cells co-treated with 500 pM E2 [1] [% E2] | Induction of AP activity in uterine cells (% E2) [2] [% E2] |
| --- | --- | --- | --- | --- | --- | --- | --- |
| CCCN1CC(Oc2ccc(C3Oc4cc(O)ccc4C(C)=C3c3ccccc3)cc2)C1 (single isomer, unassigned) [Compound 118, 4-methyl-3-phenyl-2-(4-((1-propylazetidin-3-yl)oxy)phenyl)-2H-chromen-7-ol] | 55 | 132 | 254 |  |  | 16 | 104 |
| CCCN1CC(Oc2ccc(C3Oc4cc(O)ccc4C(C)=C3c3ccccc3C(C)C)cc2)C1 (stereo not shown) [Compound 119, 3-(2-isopropylphenyl)-4-methyl-2-(4-((1-propylazetidin-3-yl)oxy)phenyl)-2H-chromen-7-ol] | 36 |  |  | 33 | 15 | 18 | 44 |
| CCCN1CC(Oc2ccc(C3Oc4cc(O)ccc4C(C)=C3c3ccccc3Cl)cc2)C1 (stereo not shown) [Compound 120, 3-(2-chlorophenyl)-4-methyl-2-(4-((1-propylazetidin-3-yl)oxy)phenyl)-2H-chromen-7-ol] | 61 |  |  | 10 | 8 | 14 | 12 |

The next lines start with results.

| Relative change ERα levels (% vehicle) (ERα) [% veh] | IC50 ([3]; MCF-7 cells) [nM] | IC50 ([4]; MCF-7 cells) [nM] | IC50 [3, 5] [nM] | IC50 [4, 5] [nM] | Structure (SMILES) | AP activity (% E2), cells co-treated with 500 pM E2 [1] [% E2] | Induction of AP activity in uterine cells (% E2) [2] [% E2] |
| --- | --- | --- | --- | --- | --- | --- | --- |
| 51 |  |  | 7 | 3 | CCCN1CC(Cc2ccc(C3Oc4cc(O)ccc4C(C)=C3c3ccc(O)cc3)cc2)C1 (stereo not shown) [Compound 101, 3-(4-hydroxyphenyl)-4-methyl-2-(4-((1-propylazetidin-3-yl)methyl)phenyl)-2H-chromen-7-ol] | 8 | 9 |
| 44 |  |  | 6 | 2 | CCCN1CC(Oc2ccc(C3Oc4cc(O)ccc4C(C)=C3c3ccc(O)cc3)cc2)C1 (stereo not shown) [Compound 104, 3-(4-hydroxyphenyl)-4-methyl-2-(4-((1-propylazetidin-3-yl)oxy)phenyl)-2H-chromen-7-ol] | 4 | 5 |
